Measurements published in PMC10916352, “Safety Evaluation of a Prototypical Diazirine-Based Covalent Crosslinker and Molecular Adhesive” (International Journal of Toxicology, 2023).
Values joined by “and” are separate entries in the source; they are usually repeats but may differ in a detail not shown here. Equal values may be shown once.

What was measured:
[1] = test system: Salmonella typhimurium TA100; test: Bacterial reverse mutation test (Ames), strain TA100; type: cell-based; details: for Revertant Colonies (With S9), plates A, B, C / Revertant Colonies (Without S9), plates A, B, C: individual plates
Protocol: (§1) The reverse mutation test was performed to determine the potential of BondLynx and/or its metabolites to induce reverse mutations at the histidine locus of Salmonella typhimurium.[26],[27] The test employs strains of Salmonella typhimurium carrying mutations in the genes involved in histidine production, such that they are only able to grow in histidine supplemented culture media. Upon exposure to mutagenic materials, these mutations may be reversed, thereby restoring the ability to grow in histidine-free media. When grown in the presence of the test compound on media with a small amount of histidine, tester strains grow briefly to allow the opportunity for mutation, followed by proliferation of revertant colonies upon depletion of the provided histidine. Thus, the number of revertant colonies following incubation is indicative of the ability of the test compound to induce mutations.
(§2) Tests were performed on two strains of the bacteria (TA98 and TA100) in the absence and presence of an exogenous mammalian metabolic activation system (5% v/v S9). Positive controls and BondLynx were suspended in dimethyl sulfoxide (DMSO) for testing, and DMSO served as the vehicle control. Positive controls consisted of 2-nitrofluorene (10 μg/plate) for the TA98 strain without S9, methyl mesylate (650 μg/plate) for the TA100 strain without S9, and 2-aminoanthracene for both strains with S9 (1 μg/plate for TA98 and 5 μg/plate for TA100). Eight concentrations of BondLynx (1.7, 5.4, 17, 52, 164, 512, 1600 and 5000 μg/plate) were tested in triplicate. The vehicle control was tested in triplicate and the positive controls were tested singular.
(§3) Test solutions were prepared by pre-incubating .1 mL fresh bacterial culture (10^9 cells/mL), .1 mL of a BondLynx dilution or control solution, and .5 mL of S9 mix or .1 M phosphate buffer for 30 min before adding to 3 mL of molten (45 ± 2°C) top agar. After mixing in a vortex, agar solutions were poured onto selective agar plates. Upon solidification, the prepared plates were inverted and incubated at 37.0 ± 1.0°C for 48 ± 4 h. Following incubation, revertant colonies were counted with a Sorcerer Colony Counter. The condition of the bacterial background lawn was evaluated macroscopically and/or microscopically using a dissecting microscope when considered necessary.

[2] = test system: Salmonella typhimurium TA98; test: Bacterial reverse mutation test (Ames), strain TA98; type: cell-based; details: for Revertant Colonies (With S9), plates A, B, C / Revertant Colonies (Without S9), plates A, B, C: individual plates
Protocol: as §1, §2, §3

[3] = TA100, without S9, 1.7 μg/plate
[4] = TA100, without S9, 5.4 μg/plate
[5] = TA100, without S9, 164 μg/plate
[6] = TA100, without S9, 512 μg/plate
[7] = TA100, without S9, 1600 μg/plate
[8] = TA100, without S9, 5000 μg/plate
[9] = absence of S9, higher concentrations
[10] = presence of S9, any tested dose level
[11] = TA98, without S9, 1600 μg/plate
[12] = TA98, without S9, 5000 μg/plate

With FC(F)(F)C1(c2ccc(C(c3ccc(C4(C(F)(F)F)N=N4)cc3)(C(F)(F)F)C(F)(F)F)cc2)N=N1 [BondLynx, 2,2-bis-[4-[3-(trifluoromethyl)-3H-diazirin-3-yl]phenyl]hexafluoropropane] the Mutagenicity conclusion ([1]; TA100, absence and presence of S9, 1.7 to 5000 μg/plate) was “non-mutagenic”, the “Total number of revertants relative to concurrent vehicle control” value ([1]; TA100, vs DMSO vehicle control) was “less than two times” and the “Revertant Colonies (With S9), Mean ± SD” value ([1]; TA100, with S9, 1.7 μg/plate) was 95 ± 3. For the same compound, the “Revertant Colonies (With S9), plates A, B, C” value ([1]; TA100, with S9, 1.7 μg/plate) was 93 and 94 and 98, the “Revertant Colonies (With S9), Mean ± SD” value ([1]; TA100, with S9, 5.4 μg/plate) was 92 ± 17 and the “Revertant Colonies (With S9), plates A, B, C” value ([1]; TA100, with S9, 5.4 μg/plate) was 98 and 73 and 105. The “Revertant Colonies (With S9), Mean ± SD” value ([1]; TA100, with S9, 17 μg/plate) was 89 ± 15, the “Revertant Colonies (With S9), plates A, B, C” value ([1]; TA100, with S9, 17 μg/plate) was 72 and 98 (2×) and the “Revertant Colonies (With S9), Mean ± SD” value ([1]; TA100, with S9, 52 μg/plate) was 100 ± 16. For the same compound, the “Revertant Colonies (With S9), plates A, B, C” value ([1]; TA100, with S9, 52 μg/plate) was 118 and 93 and 88, the “Revertant Colonies (With S9), Mean ± SD” value ([1]; TA100, with S9, 164 μg/plate) was 96 ± 16 and the “Revertant Colonies (With S9), plates A, B, C” value ([1]; TA100, with S9, 164 μg/plate) was 83 and 113 and 91. For the same compound, the “Revertant Colonies (With S9), Mean ± SD” value ([1]; TA100, with S9, 512 μg/plate) was 99 ± 16, the “Revertant Colonies (With S9), plates A, B, C” value ([1]; TA100, with S9, 512 μg/plate) was 98 and 84 and 116 and the “Revertant Colonies (With S9), Mean ± SD” value ([1]; TA100, with S9, 1600 μg/plate) was 88 ± 8. The “Revertant Colonies (With S9), plates A, B, C” value ([1]; TA100, with S9, 1600 μg/plate) was 84 and 82 and 97, the “Revertant Colonies (With S9), Mean ± SD” value ([1]; TA100, with S9, 5000 μg/plate) was 96 ± 10 and the “Revertant Colonies (With S9), plates A, B, C” value ([1]; TA100, with S9, 5000 μg/plate) was 107 and 94 and 88. The “Revertant Colonies (Without S9), Mean ± SD” value [1, 3] was 88 ± 3, the “Revertant Colonies (Without S9), plates A, B, C” value [1, 3] was 91 and 86 (2×) and the “Revertant Colonies (Without S9), Mean ± SD” value [1, 4] was 112 ± 15. The “Revertant Colonies (Without S9), plates A, B, C” value [1, 4] was 127 and 110 and 98, the “Revertant Colonies (Without S9), Mean ± SD” value ([1]; TA100, without S9, 17 μg/plate) was 107 ± 7 and the “Revertant Colonies (Without S9), plates A, B, C” value ([1]; TA100, without S9, 17 μg/plate) was 114 and 101 and 105. The “Revertant Colonies (Without S9), Mean ± SD” value ([1]; TA100, without S9, 52 μg/plate) was 102 ± 22, the “Revertant Colonies (Without S9), plates A, B, C” value ([1]; TA100, without S9, 52 μg/plate) was 105 and 122 and 78 and the “Revertant Colonies (Without S9), Mean ± SD” value [1, 5] was 100 ± 4. For the same compound, the “Revertant Colonies (Without S9), plates A, B, C” value [1, 5] was 95 and 103 and 102, the “Revertant Colonies (Without S9), Mean ± SD” value [1, 6] was 91 ± 17 and the “Revertant Colonies (Without S9), plates A, B, C” value [1, 6] was 84 and 110 and 79. The “Revertant Colonies (Without S9), Mean ± SD” value [1, 7] was 91 ± 12, the “Revertant Colonies (Without S9), plates A, B, C” value [1, 7] was 82 and 86 and 105 and the “Revertant Colonies (Without S9), Mean ± SD” value [1, 8] was 102 ± 13. The “Revertant Colonies (Without S9), plates A, B, C” value [1, 8] was 91 and 116 and 99, the “Cytotoxicity (condition of microcolony lawn)” value (from here on “Cytotoxicity”) [1, 9] was “slight thinning of the microcolony lawn” and the “Cytotoxicity” value [1, 10] was “toxicity was not observed”. For the same compound, the Mutagenicity conclusion ([2]; TA98, absence and presence of S9, 1.7 to 5000 μg/plate) was “non-mutagenic”, the “Total number of revertants relative to concurrent vehicle control” value ([2]; TA98, vs DMSO vehicle control) was “less than three times” and the “Revertant Colonies (With S9), Mean ± SD” value ([2]; TA98, with S9, 1.7 μg/plate) was 20 ± 9. The “Revertant Colonies (With S9), plates A, B, C” value ([2]; TA98, with S9, 1.7 μg/plate) was 10 and 23 and 26, the “Revertant Colonies (With S9), Mean ± SD” value ([2]; TA98, with S9, 5.4 μg/plate) was 13 ± 8 and the “Revertant Colonies (With S9), plates A, B, C” value ([2]; TA98, with S9, 5.4 μg/plate) was 4 and 15 and 19. The “Revertant Colonies (With S9), Mean ± SD” value ([2]; TA98, with S9, 1600 μg/plate) was 17 ± 8, the “Revertant Colonies (With S9), plates A, B, C” value ([2]; TA98, with S9, 1600 μg/plate) was 26 and 16 and 10 and the “Revertant Colonies (With S9), Mean ± SD” value ([2]; TA98, with S9, 5000 μg/plate) was 13 ± 5. The “Revertant Colonies (With S9), plates A, B, C” value ([2]; TA98, with S9, 5000 μg/plate) was 8 and 16 (2×), the “Revertant Colonies (Without S9), Mean ± SD” value ([2]; TA98, without S9, 1.7 μg/plate) was 9 ± 2 and the “Revertant Colonies (Without S9), plates A, B, C” value ([2]; TA98, without S9, 1.7 μg/plate) was 8 and 11 and 7. For the same compound, the “Revertant Colonies (Without S9), Mean ± SD” value ([2]; TA98, without S9, 5.4 μg/plate) was 8 ± 4, the “Revertant Colonies (Without S9), plates A, B, C” value ([2]; TA98, without S9, 5.4 μg/plate) was 4 and 12 and 8 and the “Revertant Colonies (Without S9), Mean ± SD” value ([2]; TA98, without S9, 17 μg/plate) was 13 ± 4. The “Revertant Colonies (Without S9), plates A, B, C” value ([2]; TA98, without S9, 17 μg/plate) was 15 and 11 and 12, the “Revertant Colonies (Without S9), Mean ± SD” value [2, 11] was 9 ± 5 and the “Revertant Colonies (Without S9), plates A, B, C” value [2, 11] was 7 and 15 and 5. For the same compound, the “Revertant Colonies (Without S9), Mean ± SD” value [2, 12] was 14 ± 3, the “Revertant Colonies (Without S9), plates A, B, C” value [2, 12] was 18 and 12 (2×) and the “Cytotoxicity” value [2, 9] was “slight thinning of the microcolony lawn”. The “Cytotoxicity” value [2, 10] was “toxicity was not observed”.
